# From PMC11500415, “Chemical inhibition of stomatal differentiation by perturbation of the master-regulatory bHLH heterodimer via an ACT-Like domain” (Nature Communications, 2024)
# Several values for one entry are separate records, joined by “and”; a condition that tells them apart may be missing. Equal entries are not always repeated.
# System: Arabidopsis wild-type (WT) seedlings
# Experiment: Stomatal development bioassay, seedlings in liquid culture
# Format: in vivo
# Details: for effect on stomatal development (in words): WT seedlings; for Number of stomata per 1 mm2 of cotyledon abaxial epidermis: single seedlings n=8 (Fig. 2c); for reduction of total number of stomata and meristemoids / decrease of the number of stomata from mock / increase of the number of meristemoids from mock: WT (Fig. 1e); for meristemoid density, mean / stomata density, mean / total (stomata+meristemoid) density, mean: mean of n=8 (Fig. 1e)
# Experimental: Arabidopsis accession Columbia (Col-0) was used as wild-type. […] Their genotype and transcript reduction were confirmed. The presence of transgenes/mutant alleles were confirmed by genotyping. For liquid culture with Stomidazolone (AYSJ929, compound 3), the analogs (AYSJ1059 (compound 5) and AYSJ1061 (compound 6)), degraded compound lzx103 (compound 4), and SIM3* (compound 7), all compounds were dissolved in dimethyl sulfoxide (DMSO, Molecular biology grade, Fujifilm Wako, Japan 046-21981), Col-0 seeds were sown in 96-well plates (TL5003; True Line) containing 95 μL of 1/2 MS media containing 0.5% sucrose with rotary shaking at 140 rpm under continuous light at 22 °C. Five μL of compounds were dissolved in DMSO at 10 mM and diluted with liquid 1/2 MS media to 1 mM and added on 1-day-old seedlings (final concentration, 50 μM). Seedlings were incubated for 8 days, and at day 9 seedling abaxial cotyledons were observed through confocal microscopy. For liquid culture of scrm-D_S343 and scrm-D_S423, 1/2 MS liquid media without sucrose was used. For the solid culture, 0, 20, 50 or 100 μM Stomidazolone were solidified with low-melting agarose (5805S, PrimeGelTM Agarose LMT 1-20 K, TAKARA Bio). Briefly, 1/2 MS salt, 0.5% sucrose, and 0.8% low melting agarose were mixed in water and autoclaved. After cooling the medium at around 30 °C, Stomidazolone (500x, dissolved in DMSO) was added and poured into 90 mm petri dishes (Asnol Petri Dish JP φ90 x 15 mm, 3-1491-01, AS ONE). Col-0 seeds were sown on Stomidazolone-containing 1/2 MS agarose media and grown under continuous light for 9 days.
# For confocal microscopy, cell peripheries of seedlings were visualized with propidium iodide (Sigma, P4170). Images were acquired using LSM800 or LSM700 (Zeiss) using a 20x lens. The GFP, YFP reporter and PI signals were detected with excitation at 488 nm and an emission filter of 410 to 546 nm, at 488 nm and an emission filter of 410 to 546 nm, and with excitation at 561 nm and 582–617 nm emission range, respectively. Raw data were collected with 1024 × 1024 pixel images. For qualitative image presentation, Adobe Photoshop CC was used to trim and uniformly adjust the contrast/brightness.
# For quantitative analysis of the abaxial leaf epidermis, confocal images were taken on the days after germination as indicated in the Figure legends. Preparation of images was done as described previously[32],[70]. For counting epidermal cell types, stomatal density, stomatal precursor cells (meristemoids), total stomata-lineage cells (stomata and meristemoids) were calculated by counting cell types in an area of 0.4 mm^2 (0.63 mm × 0.63 mm) and plotted as per mm^2. A series of Z-stack confocal images was obtained to obtain images covering the epidermis and capturing GFP/YFP signal from the reporter lines. The area and the number of epidermal cells were quantified by using FIJI-ImageJ. Statistical analyses were performed using R ver. 4.0.2. Sample sizes (n) are indicated and defined in each legend. For the multiple sample comparison, 1-way ANOVA was performed followed by a post hoc Tukey HSD test. For the two-sample comparison, Student’s T-test was performed. Graphs were generated using R ggplot2 package. For all boxplots, each box represents IQR (interquartile range), in which top, middle line, and bottom indicating 75, 50, and 25 percentiles, respectively, and the bar representing maximum to minimal values. Each magenta dot represents jittered individual data point. The datapoints that go beyond the bar are outliers, which are indicated as black dots. If the data point is greater than Q3 + 1.5*IQR (above the third quartile is greater than 1.5 times of the interquartile range) or less than Q1 − 1.5*IQR, that data point is classified as outlier. The color of Boxplot graph was based on ColorBrewer.org. The value of n, the number of each experiment or samples, the means of error bars, and how statistical significance was defined are indicated in a relevant figure legend. […]
# [1] = 50 μM, WT, single seedlings n=8 (Fig. 4b)
# [2] = 50 μM, cotyledon abaxial epidermis, individual seedlings
structure (smiles),measurement,setting,value
Cc1ccc(C2(NS(=O)(=O)c3ccccc3)N=C(c3ccccc3)C(=O)N2S(=O)(=O)c2ccccc2)cc1 (stereo not shown) [AYSJ1059],effect on stomatal development (in words),"50 μM, liquid culture",did not affect the number of stomata
same,Number of stomata per 1 mm2 of cotyledon abaxial epidermis,"50 μM, WT, 9 dag",202 per 1 mm2 and 209 per 1 mm2 and 187 per 1 mm2 and 245 per 1 mm2 and 192 per 1 mm2 and 182 per 1 mm2 and 199 per 1 mm2 and 175 per 1 mm2
O=C1C(c2ccccc2)=NC(NS(=O)(=O)c2ccccc2)(c2ccc(Br)cc2)N1S(=O)(=O)c1ccccc1 (stereo not shown) [AYSJ1061],effect on stomatal development (in words),"50 μM, liquid culture",did not affect the number of stomata
same,Number of stomata per 1 mm2 of cotyledon abaxial epidermis,"50 μM, WT, 9 dag",160 per 1 mm2 and 190 per 1 mm2 and 148 per 1 mm2 and 192 per 1 mm2 and 173 per 1 mm2 and 255 per 1 mm2 and 236 per 1 mm2
O=C1C(c2ccccc2)=NC(NS(=O)(=O)c2ccccc2)(c2ccccc2)N1S(=O)(=O)c1ccccc1 (stereo not shown) [Stomidazolone],reduction of total number of stomata and meristemoids,20 μM,14.46%
same,Total (stomata+meristemoid) density,"20 uM, WT cotyledon abaxial epidermis, 9 dag, single seedlings n=8 (Fig. 1e)",156 per mm^2 and 173 per mm^2 and 163 per mm^2 and 168 per mm^2 and 107 per mm^2 and 154 per mm^2 and 144 per mm^2 and 124 per mm^2
same,Stomata density,"20 uM, WT, 9 dag, single seedlings n=8 (Fig. 1e)",115 per mm^2 and 141 per mm^2 and 144 per mm^2 and 132 per mm^2 and 88 per mm^2 and 127 per mm^2
same,"meristemoid density, mean","20 uM, WT, mock mean 7.875",24.875 per mm^2
same,"stomata density, mean","20 uM, WT, mock mean 165.75",124.25 per mm^2
same,"total (stomata+meristemoid) density, mean","20 uM, WT, mock mean 173.75",148.625 per mm^2
same,decrease of the number of stomata from mock,50 μM,59.50%
same,increase of the number of meristemoids from mock,50 μM,801.5%
same,reduction of total number of stomata and meristemoids,50 μM,25.03%
same,Total (stomata+meristemoid) density,"50 uM, WT, 9 dag, single seedlings n=8 (Fig. 1e)",166 per mm^2 and 149 per mm^2 and 124 per mm^2 and 132 per mm^2 and 146 per mm^2 and 100 per mm^2 and 115 per mm^2 and 110 per mm^2
same,Number of stomata per 1 mm2 of cotyledon abaxial epidermis,"50 μM, WT, 9 dag",70 per 1 mm2 and 109 per 1 mm2 and 90 per 1 mm2 and 124 per 1 mm2 and 129 per 1 mm2 and 112 per 1 mm2 and 117 per 1 mm2
same,"meristemoid density, mean","50 uM, WT",63.125 per mm^2
same,"stomata density, mean","50 uM, WT",67.125 per mm^2
same,"total (stomata+meristemoid) density, mean","50 uM, WT",130.25 per mm^2
same,Stomata density,[1],90 per mm2 and 117 per mm2 and 102 per mm2 and 75 per mm2 and 107 per mm2 and 148 per mm2
same,Total (stomata+meristemoid) density,[1],104 per mm2 and 136 per mm2 and 119 per mm2 and 102 per mm2 and 87 per mm2 and 124 per mm2 and 168 per mm2 and 158 per mm2
same,Meristemoid density,"50 μM, WT, single seedlings n=8 (Fig. 4b, replotted 4k)",15 per mm2 and 19 per mm2 and 17 per mm2 and 12 per mm2 and 10 per mm2
same,Meristemoid density,[2],0 per mm2 and 2 per mm2 and 10 per mm2 and 5 per mm2 and 7 per mm2
same,Stomata density,[2],214 per mm2 and 241 per mm2 and 216 per mm2 and 228 per mm2 and 194 per mm2 and 250 per mm2 and 182 per mm2 and 207 per mm2
same,Total cell density,[2],214 per mm2 and 243 per mm2 and 226 per mm2 and 233 per mm2 and 199 per mm2 and 253 per mm2 and 190 per mm2 and 209 per mm2
same,decrease of the number of stomata from mock,100 μM,69.53%
same,increase of the number of meristemoids from mock,100 μM,647.6%
same,Total (stomata+meristemoid) density,"100 uM, WT, 9 dag, single seedlings n=8 (Fig. 1e)",120 per mm^2 and 85 per mm^2 and 71 per mm^2 and 112 per mm^2 and 95 per mm^2 and 122 per mm^2
same,"meristemoid density, mean","100 uM, WT",51 per mm^2
same,"stomata density, mean","100 uM, WT",50.5 per mm^2
same,"total (stomata+meristemoid) density, mean","100 uM, WT",101.25 per mm^2
same,effect on overall seedling growth,"liquid culture, even at 100 μM (Fig. 1f)",does not affect
